Laboratory results reported in US12030862B2, “Allosteric chromenone inhibitors of phosphoinositide 3-kinase (PI3K) for the treatment of disease” (Petra Pharma Corporation, priority 2021, dated 2024).

Columns and labels:
[1] = target: T1, PI3K-α (PIK3CA) wild-type (WT) (p110α/p85α complex) (Homo sapiens, UniProt P42336); experiment: PI3K-Alpha kinase (PIK3CA) biochemical ADP-Glo assay, wild-type; settings: 20 uM ATP, 1 h pre-incubation
T1 construct: Recombinant, catalytically active human full length PIK3KA Wild-type and H1047R mutant were purchased as 1:1 complex; 6xHis (N); purchased EMD Millipore Sigma 14-602M
Source text: (§1) PI3K-Alpha kinase (PIK3CA) activity, wild-type and H1047R mutant and determining IC50 values for inhibitors
(§2) Recombinant, catalytically active human full length PIK3KA Wild-type and H1047R mutant were purchased as 1:1 complex of N-terminal 6× his tagged p110α (catalytic) and untagged p85α (regulatory subunit) from EMD Millipore Sigma (cat. no. 14-602M and 14-792M, respectively). PIP2diC8 (Avanti Polar Lipids Inc., cat. no. 850185) or Soy PI (Avanti Polar Lipids Inc., cat. No. 840044P) was used as lipid substrate. PIP2diC8 or PI lyophilized powder was dissolved in milliQ water to a concentration of 1 mM just before use. 10 mM stock compounds in DMSO were serially diluted 1:3 to generate a 10-point curve and plated using an acoustic liquid handler system (Echo 550 series instrument, Labcyte). A 10× intermediate compound plate (200 uM starting compound concentration and 10% DMSO) was prepared before starting the reaction. A typical reaction mixture (50 uL) comprised 40 mM HEPES buffer, pH 7.4, 25 mM MgCl2, 0.01% v/v triton-X-100, 1% v/v DMSO, 20 mM NaCl, 1-5 nM WT or H1047R PI3K protein, 20 uM ATP, and 50 uM PIP2diC8 or Soy PI. 1% DMSO buffer alone without test compound was employed as MAX control (full activity in the absence of any inhibitor), and no enzyme control was used to determine the level of background Adenosine 5′-diphosphate (ADP) (MIN control). First, Wild-type (WT) and H1047R mutant protein in kinase buffer with all components except ATP were incubated with or without compound at 27° C. for 1 h. After the pre-incubation, the reaction was initiated by the addition of 20 uL of 50 uM ATP (20 uM final concentration). The reaction was allowed to proceed until about 10% conversion of ATP (2 uM ADP) at 27° C. After that time, 5 uL of reaction was mixed with 5 uL of ADP-Kinase Glo Reagent (ADP-Glo Kinase assay kit, Promega cat. no. V9102) supplemented with MgCl2 10 mM to stop the reaction and deplete the remaining ATP for 40 min at room temperature. Then, 10 uL of Kinase Detection Reagent (ADP-Glo Kinase assay kit, Promega cat. no. V9102) was added to simultaneously convert ADP to ATP and allow the newly synthesized ATP to be measured using a luciferase/luciferin reaction. After 30 min at room temperature the light generated was measured using a luminometer (EnVision plate reader, Perkin Elmer). Process data through Genedata-Screener tool. Relative IC50 values are determined using luminescence units by calculating percent inhibition with respect to on-plate “MIN” and “MAX” controls. Data was analyzed using a 4-parameter nonlinear logistic equation (four-parameter logistic concentration-response curve): Y=bot+[(top−bot)/1+(x/IC50)slope] where Y=% inhibition, X=concentration yielding y% inhibition, Bottom=minimum value of y attained by curve, Top=maximum value of y attained by curve and Slope=steepness of curve at IC50. % Inh=[(median Max−x/median Max−median Min)]·100 IC50: concentration of compound that reduces a given response (ligand binding, enzyme response) by 50%. IC50 relative: concentration giving half the compound's maximum response.
(§3) For IC50 values shown in Table A, “A” means IC50<0.5 μM; “B” means IC50 ranging between 0.5 μM and 1.0 μM; “C” means IC50 ranging between 1 μM and 5 μM; “D” means IC50 ranging between 5 μM and 10 μM; “E” means IC50>10 μM.

[2] = target: T2, PI3K-α (PIK3CA) H1047R mutant (p110α/p85α complex) (Homo sapiens, UniProt P42336, H1047R); experiment: PI3K-Alpha kinase (PIK3CA) biochemical ADP-Glo assay, H1047R mutant; settings: 20 uM ATP, 1 h pre-incubation
T2 construct: Recombinant, catalytically active human full length PIK3KA Wild-type and H1047R mutant were purchased as 1:1 complex; 6xHis (N); purchased EMD Millipore Sigma 14-792M
T2 sequence (P42336 whole entry H1047R): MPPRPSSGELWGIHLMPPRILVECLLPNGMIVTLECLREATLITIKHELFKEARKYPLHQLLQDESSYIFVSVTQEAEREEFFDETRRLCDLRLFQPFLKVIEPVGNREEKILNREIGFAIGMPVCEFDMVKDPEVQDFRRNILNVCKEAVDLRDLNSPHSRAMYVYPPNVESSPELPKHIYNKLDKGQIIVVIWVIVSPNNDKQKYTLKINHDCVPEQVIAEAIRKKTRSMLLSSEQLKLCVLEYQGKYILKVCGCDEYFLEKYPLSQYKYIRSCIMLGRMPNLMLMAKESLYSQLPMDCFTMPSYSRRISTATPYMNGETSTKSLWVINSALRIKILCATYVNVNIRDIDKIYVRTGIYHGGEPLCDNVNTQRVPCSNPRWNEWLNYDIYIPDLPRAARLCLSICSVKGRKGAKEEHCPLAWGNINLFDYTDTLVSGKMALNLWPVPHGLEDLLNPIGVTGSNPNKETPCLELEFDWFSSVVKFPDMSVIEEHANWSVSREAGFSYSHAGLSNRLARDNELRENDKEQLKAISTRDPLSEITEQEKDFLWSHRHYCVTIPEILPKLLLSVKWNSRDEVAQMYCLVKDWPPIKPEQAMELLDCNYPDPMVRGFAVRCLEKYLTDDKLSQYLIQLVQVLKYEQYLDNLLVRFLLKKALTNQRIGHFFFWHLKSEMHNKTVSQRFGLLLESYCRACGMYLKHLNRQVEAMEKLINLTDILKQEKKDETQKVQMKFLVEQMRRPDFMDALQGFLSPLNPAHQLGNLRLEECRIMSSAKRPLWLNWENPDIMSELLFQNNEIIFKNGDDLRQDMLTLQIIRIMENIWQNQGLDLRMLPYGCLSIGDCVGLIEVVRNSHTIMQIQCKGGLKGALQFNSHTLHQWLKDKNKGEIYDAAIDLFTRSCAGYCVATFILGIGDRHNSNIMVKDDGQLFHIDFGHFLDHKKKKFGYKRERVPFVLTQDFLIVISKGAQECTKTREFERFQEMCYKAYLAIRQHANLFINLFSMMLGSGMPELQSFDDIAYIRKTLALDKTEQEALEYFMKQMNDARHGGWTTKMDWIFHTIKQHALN
T2 sequence (P27986 whole entry partner): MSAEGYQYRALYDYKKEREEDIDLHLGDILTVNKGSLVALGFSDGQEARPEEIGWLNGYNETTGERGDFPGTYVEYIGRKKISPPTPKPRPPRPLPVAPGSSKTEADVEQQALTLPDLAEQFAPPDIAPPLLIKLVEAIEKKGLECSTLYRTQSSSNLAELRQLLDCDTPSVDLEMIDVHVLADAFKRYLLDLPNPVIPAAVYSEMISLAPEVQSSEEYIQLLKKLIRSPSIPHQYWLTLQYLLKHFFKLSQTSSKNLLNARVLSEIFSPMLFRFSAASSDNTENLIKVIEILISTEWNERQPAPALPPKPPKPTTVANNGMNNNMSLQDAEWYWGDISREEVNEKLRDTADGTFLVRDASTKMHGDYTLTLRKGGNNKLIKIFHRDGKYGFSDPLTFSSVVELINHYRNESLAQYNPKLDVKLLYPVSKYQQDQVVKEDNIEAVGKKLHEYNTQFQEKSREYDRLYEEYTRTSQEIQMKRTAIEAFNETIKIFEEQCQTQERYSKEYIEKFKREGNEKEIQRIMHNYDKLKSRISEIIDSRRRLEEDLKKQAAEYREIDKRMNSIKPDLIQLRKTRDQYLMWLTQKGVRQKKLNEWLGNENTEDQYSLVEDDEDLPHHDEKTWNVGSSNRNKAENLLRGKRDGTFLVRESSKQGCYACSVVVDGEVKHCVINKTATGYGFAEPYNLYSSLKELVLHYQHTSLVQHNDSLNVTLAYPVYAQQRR
Source text: as §1, §2, §3

[3] = PIP2diC8 lipid substrate (footnote 1)

Row | Structure (SMILES) | IC50 [1, 3] | IC50 [2, 3] | IC50 ([1]; Soy PI lipid substrate) | IC50 ([2]; Soy PI lipid substrate)
1 | Cc1cc(C(C)Nc2ccccc2C(=O)O)c2oc(C3CCCCC3)cc(=O)c2c1 (single isomer, unassigned; isomer 2) [Example 9, 2-[1-(2-Cyclohexyl-6-methyl-4-oxo-chromen-8-yl)ethylamino]benzoic acid, Isomer 2] | < 0.5 µM | < 0.5 µM | – | –
2 | Cc1cc(C(C)Nc2ccccc2C(=O)O)c2oc(C3(c4ccccc4)CC3)cc(=O)c2c1 (stereo not drawn) [Example 7, 2-[1-[6-Methyl-4-oxo-2-(1-phenylcyclopropyl)chromen-8-yl]ethylamino]benzoic acid; 2,2,2-trifluoroacetic acid] | – | – | > 10 µM | < 0.5 µM
3 | Cc1cc(C(C)Nc2ccccc2C(=O)O)c2oc(C3CCC(F)(F)CC3)c(C)c(=O)c2c1 (single isomer, unassigned; isomer 2) [Example 17, 2-[1-[2-(4,4-Difluorocyclohexyl)-3,6-dimethyl-4-oxo-chromen-8-yl]ethylamino]benzoic acid, Isomer 2] | – | – | > 10 µM | > 10 µM
4 | Cc1cc(C(C)Nc2ccccc2C(=O)O)c2oc(C3Cc4ccccc4C3)cc(=O)c2c1 (single isomer, unassigned; isomer 1) [Example 18, 2-[1-(2-Indan-2-yl-6-methyl-4-oxo-chromen-8-yl)ethylamino]benzoic acid, Isomer 1] | – | – | > 10 µM | 1 to 5 µM
5 | Cc1cc(C(C)Nc2ccccc2C(=O)O)c2oc(C3Cc4ccccc4C3)c(C)c(=O)c2c1 (single isomer, unassigned; isomer 2) [Example 22, 2-[1-(2-Indan-2-yl-3,6-dimethyl-4-oxo-chromen-8-yl)ethylamino]benzoic acid, Isomer 2] | – | – | > 10 µM | > 10 µM
6 | Cc1cc(C(C)Nc2ccccc2C(=O)O)c2oc(C3Cc4ccccc4C3)cc(=O)c2c1 (single isomer, unassigned; isomer 2) [Example 19, 2-[1-(2-Indan-2-yl-6-methyl-4-oxo-chromen-8-yl)ethylamino]benzoic acid, Isomer 2] | – | – | 1 to 5 µM | < 0.5 µM
7 | Cc1cc(C(C)Nc2ccccc2C(=O)O)c2oc(C3CCC(F)(F)CC3)cc(=O)c2c1 (single isomer, unassigned; isomer 1) [Example 14, 2-[1-[2-(4,4-Difluorocyclohexyl)-6-methyl-4-oxo-chromen-8-yl]ethylamino]benzoic acid, Isomer 1] | – | – | > 10 µM | > 10 µM
8 | CC(Nc1ccccc1C(=O)O)c1cccc2c(=O)cc(C3CCCCC3)oc12 (single isomer, unassigned; isomer 1) [Example 12, 2-[1-(2-Cyclohexyl-4-oxo-chromen-8-yl)ethylamino]benzoic acid, Isomer 1] | > 10 µM | > 10 µM | – | –
9 | Cc1cc(C(C)Nc2ccccc2C(=O)O)c2oc(C3CCC(F)(F)CC3)c(C)c(=O)c2c1 (single isomer, unassigned; isomer 1) [Example 16, 2-[1-[2-(4,4-Difluorocyclohexyl)-3,6-dimethyl-4-oxo-chromen-8-yl]ethylamino]benzoic acid, Isomer 1] | – | – | 0.5 to 1 µM | < 0.5 µM
10 | Cc1cc(C(C)Nc2ccccc2C(=O)O)c2oc(C3CCC(C)(C)CC3)cc(=O)c2c1 (single isomer, unassigned; isomer 2) [Example 11, 2-[1-[2-(4,4-Dimethylcyclohexyl)-6-methyl-4-oxo-chromen-8-yl]ethylamino]benzoic acid, Isomer 2] | > 10 µM | > 10 µM | – | –
11 | Cc1cc(C(C)Nc2ccccc2C(=O)O)c2oc(C3Cc4ccccc4C3)c(C)c(=O)c2c1 (single isomer, unassigned; isomer 1) [Example 21, 2-[1-(2-Indan-2-yl-3,6-dimethyl-4-oxo-chromen-8-yl)ethylamino]benzoic acid, Isomer 1] | – | – | 1 to 5 µM | < 0.5 µM
12 | Cc1cc(C(C)Nc2ccccc2C(=O)O)c2oc(C3CCCCC3)cc(=O)c2c1 (single isomer, unassigned; isomer 1) [Example 8, 2-[1-(2-Cyclohexyl-6-methyl-4-oxo-chromen-8-yl)ethylamino]benzoic acid, Isomer 1] | > 10 µM | 1 to 5 µM | – | –
13 | Cc1cc(C(C)Nc2ccccc2C(=O)O)c2oc(C3CCC(C)(C)CC3)cc(=O)c2c1 (single isomer, unassigned; isomer 1) [Example 10, 2-[1-[2-(4,4-Dimethylcyclohexyl)-6-methyl-4-oxo-chromen-8-yl]ethylamino]benzoic acid, Isomer 1] | 1 to 5 µM | < 0.5 µM | – | –
14 | Cc1cc(C(C)Nc2ccccc2C(=O)O)c2oc(C3CCC(F)(F)CC3)cc(=O)c2c1 (single isomer, unassigned; isomer 2) [Example 15, 2-[1-[2-(4,4-Difluorocyclohexyl)-6-methyl-4-oxo-chromen-8-yl]ethylamino]benzoic acid, Isomer 2] | – | – | > 10 µM | < 0.5 µM
15 | CC(Nc1ccccc1C(=O)O)c1cccc2c(=O)cc(C3CCCCC3)oc12 (single isomer, unassigned; isomer 2) [Example 13, 2-[1-(2-Cyclohexyl-4-oxo-chromen-8-yl)ethylamino]benzoic acid, Isomer 2] | – | – | > 10 µM | < 0.5 µM
